Laboratory results published in ChEMBL document CHEMBL1949514, “Design, Synthesis, and Antitumor Activity of 4-Halocolchicines and Their Pro-drugs Activated by Cathepsin B” (ACS Med Chem Lett, 2011).

Assays:
HT-29 = assay: Cytotoxicity against human HT-29 cells after 96 hrs using tetracolor one; type: functional, cell-based; conditions: HT-29, 96 h
A549 = assay: Cytotoxicity against human A549 cells after 96 hrs using tetracolor one; type: functional, cell-based; conditions: A549, 96 h
HCT-116 [1] = assay: Cytotoxicity against human HCT116 cells after 96 hrs using tetracolor one; type: functional, cell-based; conditions: HCT-116, 96 h
HCT-116 [2] = assay: Antitumor activity against human HCT116 cells xenografted in BALB/c mouse assessed as tumor growth inhibition at […], ip administered on day 1 to day 5 and day 8 to day 12 measured on day 21 relative to control; type: functional; conditions: HCT-116, ip, dose 0.25 mg/kg, route intraperitoneal, read-out: TGI
HCT-116 [3] = assay: Antitumor activity against human HCT116 cells xenografted in BALB/c mouse assessed as tumor growth inhibition at 1 mg/kg, ip administered on day 1 to day 5 and day 8 to day 12 measured on day 21 relative to control; type: functional; conditions: HCT-116, ip, route intraperitoneal, read-out: TGI
Mus musculus [4] = assay: Toxicity in human HCT116 cells xenografted BALB/c mouse assessed as mortality at […], ip administered on day 1 to day 5 and day 8 to day 12 measured on day 21; type: organism-based, HCT-116; parameters: dose 0.25 mg/kg, route intraperitoneal; conditions: in vivo
Mus musculus [5] = assay: Toxicity in human HCT116 cells xenografted BALB/c mouse assessed as mortality at 1 mg/kg, ip administered on day 1 to day 5 and day 8 to day 12 measured on day 21; type: organism-based, HCT-116; parameters: dose 1 mg/kg, route intraperitoneal; conditions: in vivo
[6] = Prodrug conversion assessed as (S)-7-Amino-4-fluoro-1,2,3,10-tetramethoxy-6,7-dihydro-5H-benzo[a]heptalen-9-one release at 4 uM in presence of bovine spleen cathepsin-B by HPLC analysis; type: physicochemical; conditions: cattle
[7] = Chemical stability of the compound after 24 hrs by HPLC analysis; type: physicochemical
HUVEC [8] = assay: Cytotoxicity against human HUVEC cells after 96 hrs using tetracolor one; type: ADME, cell-based
HUVEC [9] = assay: Selectivity ratio of IC50 for human HUVEC cells to IC50 for human HT-29 cells
[10] = Prodrug conversion assessed as (S)-7-Amino-1,2,3,10-tetramethoxy-6,7-dihydro-5H-benzo[a]heptalen-9-one release at 4 uM in presence of bovine spleen cathepsin-B by HPLC analysis; type: physicochemical; conditions: cattle
HCT-116 [11] = assay: Antitumor activity against human HCT116 cells xenografted in BALB/c mouse assessed as tumor growth inhibition at 1 mg/kg, ip administered on 1, 3 and 5th day measured on day 21 relative to control; type: functional; conditions: HCT-116, ip, 504 h, route intraperitoneal, read-out: TGI
HCT-116 [12] = assay: Antitumor activity against human HCT116 cells xenografted in BALB/c mouse assessed as tumor growth inhibition at 5 mg/kg, ip administered on day 1 to day 5 and day 8 to day 12 measured on day 21 relative to control; type: functional; conditions: HCT-116, ip, route intraperitoneal, read-out: TGI
Mus musculus [13] = assay: Toxicity in human HCT116 cells xenografted BALB/c mouse assessed as mortality at 5 mg/kg, ip administered on day 1 to day 5 and day 8 to day 12 measured on day 21; type: organism-based, HCT-116; parameters: dose 5 mg/kg, route intraperitoneal; conditions: in vivo

Row | SMILES | IC50 (HT-29) [nM] | IC50 (A549) [nM] | IC50 (HCT-116 [1]) [nM] | other results
1 | COc1c(Br)c2c(c(OC)c1OC)-c1ccc(OC)c(=O)cc1[C@@H](NC(C)=O)CC2 | 6 | 14 | 7 | –
2 | COc1c(C=O)c2c(c(OC)c1OC)-c1ccc(OC)c(=O)cc1[C@@H](NC(C)=O)CC2 | 128 | 1010 | 54 | –
3 | COc1c(F)c2c(c(OC)c1OC)-c1ccc(OC)c(=O)cc1[C@@H](NC(C)=O)CC2 | 7 | 33 | 8 | inhibition in vivo at […] (HCT-116 [2]): 25%; inhibition in vivo at 1 mg/kg (HCT-116 [3]): 55.6%; Activity (Mus musculus [4]): Non-toxic; Activity (Mus musculus [5]): Non-toxic
4 | COc1c(F)c2c(c(OC)c1OC)-c1ccc(OC)c(=O)cc1[C@@H](NC(=O)OCc1ccc(NC(=O)[C@H](CCCCN)NC(=O)[C@H](Cc3ccccc3)NC(=O)OCc3ccccc3)cc1)CC2 | 91 | – | – | Drug metabolism [6]: Active; Stability [7]: Stable; IC50 (HUVEC [8]): 151 nM; Ratio IC50 (HUVEC [9]): 1.7
5 | COc1cc2c(c(OC)c1OC)-c1ccc(OC)c(=O)cc1[C@@H](NC(=O)OCc1ccc(NC(=O)[C@H](CCCCN)NC(=O)[C@H](Cc3ccccc3)NC(=O)OCc3ccccc3)cc1)CC2 | 44 | – | – | Drug metabolism [10]: Active; Stability [7]: Stable; IC50 (HUVEC [8]): 75 nM; Ratio IC50 (HUVEC [9]): 1.7
6 | COc1cc2c(c(OC)c1OC)-c1ccc(OC)c(=O)cc1[C@@H](NC(C)=O)CC2 [COLCHICINE] | 8 | 54 | 11 | inhibition in vivo at 1 mg/kg (HCT-116 [11]): 32.8%
7 | COc1c(Cl)c2c(c(OC)c1OC)-c1ccc(OC)c(=O)cc1[C@@H](NC(C)=O)CC2 | 10 | 12 | 9 | inhibition in vivo at 5 mg/kg (HCT-116 [12]): 68.4%; Activity (Mus musculus [13]): Non-toxic
8 | COc1c(I)c2c(c(OC)c1OC)-c1ccc(OC)c(=O)cc1[C@@H](NC(C)=O)CC2 | 6 | 32 | 7 | –
9 | COc1c(OC)c2c(c([N+](=O)[O-])c1OC)CC[C@H](NC(C)=O)c1cc(=O)c(OC)ccc1-2 | 31 | 73 | 38 | –
10 | COc1c(Cl)c2c(c(OC)c1OC)-c1ccc(OC)c(=O)cc1[C@@H](N)CC2 | 250 | 301 | – | –
11 | COc1c(O)c2c(c(OC)c1OC)-c1ccc(OC)c(=O)cc1[C@@H](NC(C)=O)CC2 | 484 | 225 | – | –
12 | COc1c(N)c2c(c(OC)c1OC)-c1ccc(OC)c(=O)cc1[C@@H](NC(C)=O)CC2 | 1550 | 2180 | – | –
13 | COc1c(F)c2c(c(OC)c1OC)-c1ccc(OC)c(=O)cc1[C@@H](N)CC2 | 80 | 101 | – | IC50 (HUVEC [8]): 75 nM; Ratio IC50 (HUVEC [9]): 0.9
